pIC50: −log10 of the molar value.
Molecular target: T1, human SLC6A19 and TMEM27 (Homo sapiens, UniProt Q695T7)
T1 construct: expressed in transfected cells
T1 sequence (Q695T7 1-634): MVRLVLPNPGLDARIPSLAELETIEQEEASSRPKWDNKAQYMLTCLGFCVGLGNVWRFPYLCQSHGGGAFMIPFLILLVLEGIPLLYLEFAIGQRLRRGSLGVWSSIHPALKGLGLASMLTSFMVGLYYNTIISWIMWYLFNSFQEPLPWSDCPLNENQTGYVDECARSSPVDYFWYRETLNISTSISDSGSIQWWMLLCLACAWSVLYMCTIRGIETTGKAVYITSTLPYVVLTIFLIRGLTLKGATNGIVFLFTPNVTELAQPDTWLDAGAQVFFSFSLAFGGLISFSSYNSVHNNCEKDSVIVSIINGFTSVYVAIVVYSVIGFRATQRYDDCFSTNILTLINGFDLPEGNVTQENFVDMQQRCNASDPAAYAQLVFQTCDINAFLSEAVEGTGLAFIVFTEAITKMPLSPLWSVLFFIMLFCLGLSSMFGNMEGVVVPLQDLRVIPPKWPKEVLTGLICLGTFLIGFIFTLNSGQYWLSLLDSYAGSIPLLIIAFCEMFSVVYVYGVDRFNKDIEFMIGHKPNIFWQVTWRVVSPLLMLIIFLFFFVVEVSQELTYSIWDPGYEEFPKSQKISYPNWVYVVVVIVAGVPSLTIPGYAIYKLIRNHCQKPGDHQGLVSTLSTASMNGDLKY
T1 sequence (Q9HBJ8 15-222 partner): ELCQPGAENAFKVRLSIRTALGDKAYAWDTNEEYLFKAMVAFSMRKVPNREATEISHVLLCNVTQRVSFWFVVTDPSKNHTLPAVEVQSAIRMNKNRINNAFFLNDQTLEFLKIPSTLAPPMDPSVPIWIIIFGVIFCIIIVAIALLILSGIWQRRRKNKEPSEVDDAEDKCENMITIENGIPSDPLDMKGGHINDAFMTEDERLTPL
Experiment: Radiolabelled (3H) leucine uptake in CHO cells with doxycycline-inducible expression of human SLC6A19 and TMEM27 (Example B-1)
Format: cell-based
Settings: CHO cells with doxycycline-inducible expression of human SLC6A19 and TMEM27, read-out: SLC6A19_Radioligand Uptake Assay IC50
Method in brief: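 CHO cells were induced with doxycycline for 18 h at 37 °C, washed in HBSS, then exposed to compounds for 1 h: 8-point, 3-fold dilutions in duplicate, 0.5% DMSO final. Uptake measured by scintillation counting after 2 h shaking. Activity normalized with positive control as 0% and DMSO as 100%.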

SMILES | pIC50
O=C(NCc1cc2ccc(OCc3ccon3)cc2[nH]1)N1CCOCC1 [Compound 199, N-((6-(isoxazol-3-ylmethoxy)-1H-indol-2-yl)methyl)morpholine-4-carboxamide] | 5.86
O=C(NCc1cc2ccc(OCc3ccon3)cc2[nH]1)N1CCC(F)C1 (stereo not drawn) [Compound 200, 3-fluoro-N-((6-(isoxazol-3-ylmethoxy)-1H-indol-2-yl)methyl)pyrrolidine-1-carboxamide] | 6.12
CC(=O)NCc1cc2cc(Cl)c(OCc3cocn3)cc2[nH]1 [Compound 206, N-((5-chloro-6-(oxazol-4-ylmethoxy)-1H-indol-2-yl)methyl)acetamide] | 6.66
CC(=O)NCc1cc2cc(F)c(OCc3ccon3)cc2[nH]1 [Compound 207, N-((5-fluoro-6-(isoxazol-3-ylmethoxy)-1H-indol-2-yl)methyl)acetamide] | 6.03
CNC(=O)NCc1cc2cc(F)c(OCc3cc(C)no3)cc2[nH]1 [Compound 210, 1-((5-fluoro-6-((3-methylisoxazol-5-yl)methoxy)-1H-indol-2-yl)methyl)-3-methylurea] | 6.53
CNC(=O)NCc1cc2cc(F)c(OCc3cc(C)on3)cc2[nH]1 [Compound 212, 1-((5-fluoro-6-((5-methylisoxazol-3-yl)methoxy)-1H-indol-2-yl)methyl)-3-methylurea] | 6.37
CNC(=O)NCc1cc2cc(Cl)c(OCc3cc(C)on3)cc2[nH]1 [Compound 213, 1-((5-chloro-6-((5-methylisoxazol-3-yl)methoxy)-1H-indol-2-yl)methyl)-3-methylurea] | 6.72
CC(=O)NCc1cc2cc(F)c(OCc3cocn3)cc2[nH]1 [Compound 224, N-((5-fluoro-6-(oxazol-4-ylmethoxy)-1H-indol-2-yl)methyl)acetamide] | 6.26
Cc1cc(COc2cc3[nH]c(CNC(=O)CC4(O)CC4)cc3cc2Cl)on1 [Compound 237, N-((5-chloro-6-((3-methylisoxazol-5-yl)methoxy)-1H-indol-2-yl)methyl)-2-(1-hydroxycyclopropyl)acetamide] | 5.85
Cc1cc(COc2cc3[nH]c(CNC(=O)C(O)C4CC4)cc3cc2Cl)on1 (stereo not drawn) [Compound 238, N-((5-chloro-6-((3-methylisoxazol-5-yl)methoxy)-1H-indol-2-yl)methyl)-2-cyclopropyl-2-hydroxyacetamide] | 5.84
Cc1cc(COc2cc3[nH]c(CNC(=O)[C@H](C)O)cc3cc2F)on1 [Compound 239, (S)-N-((5-fluoro-6-((3-methylisoxazol-5-yl)methoxy)-1H-indol-2-yl)methyl)-2-hydroxypropanamide] | 5.23
CC[C@H](O)C(=O)NCc1cc2cc(Cl)c(OCc3cc(C)no3)cc2[nH]1 [Compound 240, (S)-N-((5-chloro-6-((3-methylisoxazol-5-yl)methoxy)-1H-indol-2-yl)methyl)-2-hydroxybutanamide] | 6.31
CC[C@@H](O)C(=O)NCc1cc2cc(Cl)c(OCc3cc(C)no3)cc2[nH]1 [Compound 241, (R)-N-((5-chloro-6-((3-methylisoxazol-5-yl)methoxy)-1H-indol-2-yl)methyl)-2-hydroxybutanamide] | 5.99
Cc1cc(COc2cc3[nH]c(CNC(=O)CO)cc3cc2Cl)on1 [Compound 242, N-((5-chloro-6-((3-methylisoxazol-5-yl)methoxy)-1H-indol-2-yl)methyl)-2-hydroxyacetamide] | 6.17
Cc1cc(COc2cc3[nH]c(CNC(=O)CC4CCO4)cc3cc2Cl)on1 (stereo not drawn) [Compound 245, N-((5-chloro-6-((3-methylisoxazol-5-yl)methoxy)-1H-indol-2-yl)methyl)-2-(oxetan-2-yl)acetamide] | 5.92
Cc1cc(COc2cc3[nH]c(CNC(=O)[C@H](O)CF)cc3cc2Cl)on1 [Compound 246, (S)-N-((5-chloro-6-((3-methylisoxazol-5-yl)methoxy)-1H-indol-2-yl)methyl)-3-fluoro-2-hydroxypropanamide] | 6.39
Cc1cc(COc2cc3[nH]c(CNC(=O)[C@@H](O)CF)cc3cc2Cl)on1 [Compound 247, (R)-N-((5-chloro-6-((3-methylisoxazol-5-yl)methoxy)-1H-indol-2-yl)methyl)-3-fluoro-2-hydroxypropanamide] | 6.11
Cc1cc(COc2cc3[nH]c(CNC(=O)C(C)(C)O)cc3cc2Cl)on1 [Compound 249, N-((5-chloro-6-((3-methylisoxazol-5-yl)methoxy)-1H-indol-2-yl)methyl)-2-hydroxy-2-methylpropanamide] | 6.26
Cc1cc(COc2cc3[nH]c(CNC(=O)C4(CO)CC4)cc3cc2Cl)on1 [Compound 250, N-((5-chloro-6-((3-methylisoxazol-5-yl)methoxy)-1H-indol-2-yl)methyl)-1-(hydroxymethyl)cyclopropane-1-carboxamide] | 6.42
Cc1cc(COc2cc3[nH]c(CNC(=O)C4(O)CC4)cc3cc2Cl)on1 [Compound 251, N-((5-chloro-6-((3-methylisoxazol-5-yl)methoxy)-1H-indol-2-yl)methyl)-1-hydroxycyclopropane-1-carboxamide] | 6.71
Cc1cc(COc2cc3[nH]c(CNC(=O)[C@H]4C[C@H](O)C4)cc3cc2Cl)on1 [Compound 252, (1R,3R)-N-((5-chloro-6-((3-methylisoxazol-5-yl)methoxy)-1H-indol-2-yl)methyl)-3-hydroxycyclobutane-1-carboxamide] | 6.20
Cc1cc(COc2cc3[nH]c(CNC(=O)[C@H]4C[C@@H](O)C4)cc3cc2Cl)on1 [Compound 253, (1S,3S)-N-((5-chloro-6-((3-methylisoxazol-5-yl)methoxy)-1H-indol-2-yl)methyl)-3-hydroxycyclobutane-1-carboxamide] | 6.22

Second part, the molecule after the results:

pIC50 | SMILES
6.81 | CC1(C(=O)NCc2cc3cc(Cl)c(SCc4ccon4)cc3[nH]2)CC1 [Compound 197, N-((5-chloro-6-((isoxazol-3-ylmethyl)thio)-1H-indol-2-yl)methyl)-1-methylcyclo propanecarboxamide]
5.69 | CC1(C(=O)NCc2cc3cc(Cl)c(OCc4cccc(O)c4)cc3[nH]2)CC1 [Compound 198, N-((5-chloro-6-((3-hydroxybenzyl)oxy)-1H-indol-2-yl)methyl)-1-methylcyclopropane-1-carboxamide]
5.29 | CC1(C(=O)NCc2cc3ccc(OCc4ccon4)c(F)c3[nH]2)CC1 [Compound 201, N-((7-fluoro-6-(isoxazol-3-ylmethoxy)-1H-indol-2-yl)methyl)-1-methylcyclopropane-1-carboxamide]
5.81 | CCc1cc2cc(CNC(=O)C3(C)CC3)[nH]c2cc1OCc1cscn1 [Compound 202, N-((5-ethyl-6-(thiazol-4-ylmethoxy)-1H-indol-2-yl)methyl)-1-methylcyclopropane-1-carboxamide]
5.96 | CC1(C(=O)NCc2cc3cc(Cl)c(OCc4ccccc4O)cc3[nH]2)CC1 [Compound 203, N-((5-chloro-6-((2-hydroxybenzyl)oxy)-1H-indol-2-yl)methyl)-1-methylcyclopropane-1-carboxamide]
6.27 | CC(C)c1cc2cc(CNC(=O)C3(C)CC3)[nH]c2cc1OCc1ccon1 [Compound 204, N-((5-isopropyl-6-(isoxazol-3-ylmethoxy)-1H-indol-2-yl)methyl)-1-methylcyclopropane-1-carboxamide]
6.88 | CC(=O)NCc1cc2cc(F)c(OCc3cscn3)cc2[nH]1 [Compound 208, N-((5-fluoro-6-(thiazol-4-ylmethoxy)-1H-indol-2-yl)methyl)acetamide]
6.47 | CC(O)C(=O)NCc1cc2cc(Cl)c(OCc3cscn3)cc2[nH]1 (stereo not drawn) [Compound 243, N-((5-chloro-6-(thiazol-4-ylmethoxy)-1H-indol-2-yl)methyl)-2-hydroxypropanamide]
6.41 | O=C(CO)NCc1cc2cc(Cl)c(OCc3cscn3)cc2[nH]1 [Compound 244, N-((5-chloro-6-(thiazol-4-ylmethoxy)-1H-indol-2-yl)methyl)-2-hydroxyacetamide]
6.53 | O=C(NCc1cc2cc(Cl)c(OCc3cscn3)cc2[nH]1)C1(CO)CC1 [Compound 254, N-((5-chloro-6-(thiazol-4-ylmethoxy)-1H-indol-2-yl)methyl)-1-(hydroxymethyl)cyclopropane-1-carboxamide]
5.87 | O=C(NCc1cc2cc(F)c(OCc3cscn3)cc2[nH]1)C1(CO)CC1 [Compound 255, N-((5-fluoro-6-(thiazol-4-ylmethoxy)-1H-indol-2-yl)methyl)-1-(hydroxymethyl)cyclopropane-1-carboxamide]
